Laboratory results published in the NIST ThermoML archive (doi:10.1016/j.jct.2013.01.009).
“And” between values parts separate entries of the source, which are not always exact repeats. Identical values can stand only once.

How the values were obtained:
[1] = for vapor or sublimation pressure: Closed cell (Static) method
[2] = molar heat capacity at constant pressure; conditions: 101.33 kPa
[3] = Molar enthalpy of transition or fusion; conditions: Crystal; DSC
[4] = molar enthalpy of vaporization or sublimation; conditions: 298.15 K; Crystal; Static calorimetry

C=C1CC[C@H]2C[C@@H]1C2(C)C [(1S,5S)-6,6-dimethyl-2-methylenebicyclo[3.1.1]heptane]
[1], Liquid
Conditions	vapor or sublimation pressure
248.13 K	0.00844 kPa and 0.00845 kPa
253.14 K	0.01345 kPa and 0.01346 kPa
258.15 K	0.021 kPa and 0.02101 kPa
263.15 K	0.03214 kPa and 0.03213 kPa
268.15 K	0.04828 kPa and 0.04829 kPa
273.65 K	0.07411 kPa and 0.07418 kPa
278.15 K	0.1037 kPa and 0.1038 kPa
283.15 K	0.1485 kPa
288.15 K	0.2093 kPa and 0.2094 kPa and 0.2095 kPa
293.15 K	0.291 kPa and 0.2911 kPa
298.15 K	0.4 kPa
303.15 K	0.5419 kPa and 0.542 kPa
308.15 K	0.7254 kPa and 0.7255 kPa and 0.7256 kPa

[2], Liquid, Large sample (1 g) DSC
Conditions	molar heat capacity at constant pressure [J/K/mol]
273.4 K	230.06
278.5 K	232.64
283.6 K	235.22
288.7 K	237.96
293.8 K	240.62
298.9 K	243.36
304 K	245.94
309.1 K	248.19
314.2 K	251.01
319.4 K	254.17
324.5 K	256.75
329.6 K	260.08
334.7 K	262.9
339.8 K	266.4
344.9 K	269.47
350 K	272.05
355.1 K	275.21

CC1=C[C@H](O)[C@H]2C[C@@H]1C2(C)C [(-)-cis-verbenol]
[1]
Conditions	Normal melting temperature, Crystal [°C]	vapor or sublimation pressure, 273.15 K	vapor or sublimation pressure, 278.15 K	vapor or sublimation pressure, 283.15 K [kPa]	vapor or sublimation pressure, 288.15 K	vapor or sublimation pressure, 293.15 K	vapor or sublimation pressure, 298.15 K	vapor or sublimation pressure, 303.15 K [kPa]	vapor or sublimation pressure, 308.15 K	vapor or sublimation pressure, 313.15 K
Crystal	–	0.00025 kPa and 0.00026 kPa	0.00049 kPa and 0.0005 kPa	0.00092	0.00169 kPa and 0.00168 kPa	0.003 kPa and 0.00301 kPa	0.00523 kPa and 0.00528 kPa and 0.00529 kPa	0.00906	0.01518 kPa and 0.01523 kPa and 0.01524 kPa	0.02515 kPa and 0.02516 kPa and 0.02517 kPa
DTA	70.5	–	–	–	–	–	–	–	–	–

Conditions	Molar enthalpy of transition or fusion [kJ/mol]	molar enthalpy [kJ/mol]
[3]	17.5	–
[4]	–	80

[2]
Conditions	molar heat capacity at constant pressure [J/K/mol]
273.4 K, Crystal, Large sample (1 g) DSC	217.51
278.5 K, Crystal, Large sample (1 g) DSC	222.58
283.6 K, Crystal, Large sample (1 g) DSC	228.98
288.7 K, Crystal, Large sample (1 g) DSC	235.38
293.8 K, Crystal, Large sample (1 g) DSC	242.28
298.15 K, Crystal, Drop calorimetry	233.55
298.9 K, Crystal, Large sample (1 g) DSC	250.18
304 K, Crystal, Large sample (1 g) DSC	259
309.1 K, Crystal, Large sample (1 g) DSC	269.14
344.9 K, Liquid, Large sample (1 g) DSC	372.99
350 K, Liquid, Large sample (1 g) DSC	377.14
355.1 K, Liquid, Large sample (1 g) DSC	381.47
